# Results as given in US5837516A, “Subtilisin variants capable of cleaving substrates containing basic residues” (Genentech, Inc., priority 1995, dated 1998).
# Positions count from the first letter of the chain named. Residues, ends and D or L forms follow the SMILES beside them.
# Columns and labels:
# [1] = biological target: T1, subtilisin (Bacillus amyloliquefaciens, UniProt P00782); conditions: Estell et al. (1986) Science 233:659-663; cited from earlier work
# T1 sequence (P00782 108-382): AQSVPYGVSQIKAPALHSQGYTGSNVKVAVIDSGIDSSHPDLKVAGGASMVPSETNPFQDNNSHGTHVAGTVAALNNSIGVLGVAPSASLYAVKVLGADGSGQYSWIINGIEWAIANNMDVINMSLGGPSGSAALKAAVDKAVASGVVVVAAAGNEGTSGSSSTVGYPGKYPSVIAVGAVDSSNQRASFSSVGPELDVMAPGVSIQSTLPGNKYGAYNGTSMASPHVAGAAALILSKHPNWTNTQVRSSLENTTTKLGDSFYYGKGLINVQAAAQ
# [2] = biological target: T2, subtilisin BPN' variant N62D/Y104D/G166D (SEQ ID NO: 75) (Bacillus amyloliquefaciens, UniProt P00782, G273D/N169D/Y211D); test: Kinetic analysis, hydrolysis of succinyl-tetrapeptide-pNA substrates; format: biochemical; conditions: relative to succinyl-RAKR-pNA
# T2 construct: the mature enzyme +1 to +275; made in house; host or cells: Bacillus subtilis BG2036 (protease-deficient), secreted
# T2 sequence (P00782 108-382 N169D/Y211D/G273D): T1 sequence (P00782 108-382) with N62D, Y104D, G166D
# Procedure: The mature N62D/Y104D/G166D variant was purified and analyzed for its ability to hydrolyze several tetrapeptide-pNA substrates.
# Kinetic analysis of WT, N62D/G166D, and N62D/Y104D/G166D subtilisin BPN'
# Subtilisins were assayed by measuring the initial rates of hydrolysis of p-nitroanilide tetrapeptide substrates in 0.4 mL 20 mM Tris-Cl pH 8.2, 4% (v/v) dimethyl sulfoxide at (25±0.2)° C. as described previously (Estell, D. A., Graycar, T. P., Miller, J. V., Powers, D. B., Burnier, J. P., Ng, P. G. and Wells, J. A. (1986)Science 233:659-663). Enzyme concentrations (E)0 were determined spectrophotometrically using E280 nm 0.1%=1.17 (Matsubara, H.; Kasper, C B.; Brown, D. M.; and Smith, E. L. (1965)J. Biol. Chem.,240:1125-1130.), and were typically 5-50 nM in reactions. Initial rates were determined for nine to twelve different substrate concentrations over the range of 0.001-2.0 mM. Plots of initial rates (v) versus substrate concentration (S) were fitted to the Michaelis-Menton equation, [formula] to determine the kinetic constants kcat and Km (Fersht, A. in "Enzyme Structure and Mechanism", Second edition, Freeman and Co., N.Y.) using the program Kaleidagraph (Synergy Software, Reading, Pa.).
smiles,measurement,setting,value
"C[C@H](NC(=O)CCC(=O)O)C(=O)N[C@@H](C)C(=O)N1CCC[C@H]1C(=O)N[C@@H](Cc1ccccc1)C(=O)Nc1ccc([N+](=O)[O-])cc1 [succinyl-AAPF-pNA, N-succinyl-alanine-alanine-proline-phenylalanyl-p-nitroanalide] (HELM PEPTIDE1{[O=C(O)CCC(=O)[*:2]].A.A.P.F.[O=[N+]([O-])c1ccc(N[*:1])cc1]}$$$$V2.0)",kcat /Km ratio,[1],300000 M⁻¹ s⁻¹
same,"catalytic efficiency (kcat/Km), fold less efficiently hydrolyzed than succinyl-RAKR-pNA",[2],6×10^4 fold
